For this assay, the system named is β-catenin-TCF-mediated reporter transcription activity in Colo 205 cells. The experiment in a line: Colo 205 reporter assay (TCF/LEF luciferase). Format: cell-based. As to conditions: Homo sapiens, COLO 205, 5 h, Colo 205 TCF/LEF luciferase reporter, five hours after addition of compound; read-out: TCF reporter Colo205 IC50. The gist of the method:
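Luciferase signal from a TCF/LEF-driven reporter, stably integrated in Colo 205 colon cancer cells, was measured 5 h after compound addition.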

The structures appear in SMILES notation.

As usually defined, the IC50 is the concentration that gives 50% inhibition. For the compound `Cc1nc(N[C@@H]2CC[C@H](N(C)c3ccc(C(F)(F)F)cc3)C2)nc2c1NC(=O)[C@H](C(C)C)N2C` [Compound 505, (S)-7-isopropyl-4,8-dimethyl-2-(((1R,3S)-3-(methyl(4-(trifluoromethyl)phenyl)amino)cyclopentyl)amino)-7,8-dihydropteridin-6(5H)-one], the IC50 is 1000 to 5000 nM. As to `Cc1nc(N[C@H]2C[C@H](c3ccc(OC(F)(F)F)cc3)C2)nc2c1NC(=O)[C@H](C)N2C` [Compound 506, (7S)-4,7,8-trimethyl-2-(((trans)-3-(4-(trifluoromethoxy)phenyl)cyclo-butyl)amino)-7,8-dihydropteridin-6(5H)-one], the IC50 lay within 300 to 1000 nM. With `Cc1nc(N[C@H]2C[C@@H](c3ccc(OC(F)(F)F)cc3)C2)nc2c1NC(=O)[C@H](C)N2C` [Compound 507, (7S)-4,7,8-trimethyl-2-(((cis)-3-(4-(trifluoromethoxy)phenyl)cyclo-butyl)amino)-7,8-dihydropteridin-6(5H)-one] the figure was < 300 nM; with `Cc1nc(NCc2cc(C)n(Cc3ccc(F)cc3)c2C)nc2c1NC(=O)[C@H](C(C)C)N2C` [Compound 508, (S)-2-(((1-(4-fluorobenzyl)-2,5-dimethyl-1H-pyrrol-3-yl)methyl)amino)-7-isopropyl-4,8-dimethyl-7,8-dihydropteridin-6(5H)-one], 300 to 1000 nM; with `Cc1nc(NCc2cnn(Cc3ccc(OC(F)(F)F)nc3)c2)nc2c1NC(=O)[C@H](C(C)C)N2C` [Compound 510, (S)-7-isopropyl-4,8-dimethyl-2-(((1-((6-(trifluoromethoxy)pyridin-3-yl)methyl)-1H-pyrazol-4-yl)methyl)amino)-7,8-dihydropteridin-6(5H)-one], < 300 nM. On to `Cc1nc(N[C@H]2C[C@@H](Cn3nccc3C(F)(F)F)C2)nc2c1NC(=O)[C@H](C(C)C)N2C` [Compound 512, (S)-7-isopropyl-4,8-dimethyl-2-((cis-3-((5-(trifluoromethyl)-1H-pyrazol-1-yl)methyl)cyclobutyl)amino)-7,8-dihydropteridin-6(5H)-one], for which the IC50 was < 300 nM. With `Cc1nc(N[C@H]2C[C@@H](NC(=O)Cc3cc(F)c(F)c(F)c3)C2)nc2c1NC(=O)[C@H](C(C)C)N2C` [Compound 514, N-(cis-3-(((S)-7-isopropyl-4,8-dimethyl-6-oxo-5,6,7,8-tetrahydropteridin-2-yl)amino)cyclobutyl)-2-(3,4,5-trifluorophenyl)acetamide] the figure was < 300 nM; with `Cc1nc(N[C@H]2C[C@H](NC(=O)Cc3cc(F)c(F)c(F)c3)C2)nc2c1NC(=O)[C@H](C(C)C)N2C` [Compound 515, N-(trans-3-(((S)-7-isopropyl-4,8-dimethyl-6-oxo-5,6,7,8-tetrahydropteridin-2-yl)amino)cyclobutyl)-2-(3,4,5-trifluorophenyl)acetamide], < 300 nM; with `CC[C@H]1C(=O)Nc2c(C)nc(NCc3cnn(Cc4ccc(C(F)(F)F)o4)c3)nc2N1C` [Compound 516, (S)-7-ethyl-4,8-dimethyl-2-(((1-((5-(trifluoromethyl)furan-2-yl)methyl)-1H-pyrazol-4-yl)methyl)amino)-7,8-dihydropteridin-6(5H)-one], < 300 nM.

As to `Cc1nc(N[C@H]2CCc3c2cnn3Cc2ccc(C(F)(F)F)nc2)nc2c1NC(=O)[C@H](C(C)C)N2C` [Compound 519, (S)-7-isopropyl-4,8-dimethyl-2-(((S)-1-((6-(trifluoromethyl)pyridin-3-yl)methyl)-1,4,5,6-tetrahydrocyclopenta[c]pyrazol-4-yl)amino)-7,8-dihydropteridin-6(5H)-one], the 50% inhibitory concentration (IC50) lay within 1000 to 5000 nM.

Take `Cc1nc(N[C@@H]2CCc3c2cnn3Cc2ccc(C(F)(F)F)nc2)nc2c1NC(=O)[C@H](C(C)C)N2C` [Compound 520, (S)-7-isopropyl-4,8-dimethyl-2-(((R)-1-((6-(trifluoromethyl)pyridin-3-yl)methyl)-1,4,5,6-tetrahydrocyclopenta[c]pyrazol-4-yl)amino)-7,8-dihydropteridin-6(5H)-one]: the IC50 is ≥ 5000 nM. Consider `Cc1nc(N[C@H]2CCc3nn(Cc4ccc(C(F)(F)F)nc4)cc32)nc2c1NC(=O)[C@H](C(C)C)N2C` [Compound 521, (S)-7-isopropyl-4,8-dimethyl-2-(((S)-2-((6-(trifluoromethyl)pyridin-3-yl)methyl)-2,4,5,6-tetrahydrocyclopenta[c]pyrazol-4-yl)amino)-7,8-dihydropteridin-6(5H)-one], for which the IC50 is 1000 to 5000 nM. With `Cc1nc(N[C@H]2C[C@H](NC(=O)N3CCC(F)(F)CC3)C2)nc2c1NC(=O)[C@H](C(C)C)N2C` [Compound 523, 4,4-difluoro-N-(trans-3-(((S)-7-isopropyl-4,8-dimethyl-6-oxo-5,6,7,8-tetrahydropteridin-2-yl)amino)cyclobutyl)piperidine-1-carboxamide] the figure was ≥ 5000 nM. With `Cc1nc(N[C@H]2C[C@H](NC(=O)NC3CCC(F)(F)CC3)C2)nc2c1NC(=O)[C@H](C(C)C)N2C` [Compound 524, 1-(4,4-difluorocyclohexyl)-3-(trans-3-(((S)-7-isopropyl-4,8-dimethyl-6-oxo-5,6,7,8-tetrahydropteridin-2-yl)amino)cyclobutyl)urea] the figure was ≥ 5000 nM; with `Cc1nc(N[C@H]2C[C@@H](NC(=O)N3CCC(F)(F)CC3)C2)nc2c1NC(=O)[C@H](C(C)C)N2C` [Compound 525, 4,4-difluoro-N-(cis-3-(((S)-7-isopropyl-4,8-dimethyl-6-oxo-5,6,7,8-tetrahydropteridin-2-yl)amino)cyclobutyl)piperidine-1-carboxamide], ≥ 5000 nM; with `Cc1nc(N[C@H]2C[C@@H](NC(=O)NC3CCC(F)(F)CC3)C2)nc2c1NC(=O)[C@H](C(C)C)N2C` [Compound 526, 1-(4,4-difluorocyclohexyl)-3-(cis-3-(((S)-7-isopropyl-4,8-dimethyl-6-oxo-5,6,7,8-tetrahydropteridin-2-yl)amino)cyclobutyl)urea], ≥ 5000 nM.

For the compound `Cc1nc(N[C@H]2C[C@@H](Nc3nccc(C(F)(F)F)n3)C2)nc2c1NC(=O)[C@H](C(C)C)N2C` [Compound 527, (S)-7-isopropyl-4,8-dimethyl-2-((cis-3-((4-(trifluoromethyl)pyrimidin-2-yl)amino)cyclobutyl)amino)-7,8-dihydropteridin-6(5H)-one], the IC50 lay within 300 to 1000 nM.

In the case of `Cc1nc(N[C@H]2C[C@H](Nc3nccc(C(F)(F)F)n3)C2)nc2c1NC(=O)[C@H](C(C)C)N2C` [Compound 529, (S)-7-isopropyl-4,8-dimethyl-2-((trans-3-((4-(trifluoromethyl)pyrimidin-2-yl)amino)cyclobutyl)amino)-7,8-dihydropteridin-6(5H)-one], the IC50 lay in the range of 1000 to 5000 nM. In the case of `Cc1nc(N[C@H]2C[C@H](Nc3cc(C(F)(F)F)ncn3)C2)nc2c1NC(=O)[C@H](C(C)C)N2C` [Compound 530, (S)-7-isopropyl-4,8-dimethyl-2-((trans-3-((6-(trifluoromethyl)pyrimidin-4-yl)amino)cyclobutyl)amino)-7,8-dihydropteridin-6(5H)-one], the IC50 was ≥ 5000 nM. The same measure for `Cc1nc(N[C@H]2C[C@H](Nc3cccc(C(F)(F)F)n3)C2)nc2c1NC(=O)[C@H](C(C)C)N2C` [Compound 531, (S)-7-isopropyl-4,8-dimethyl-2-((trans-3-((6-(trifluoromethyl)pyridin-2-yl)amino)cyclobutyl)amino)-7,8-dihydropteridin-6(5H)-one]: 300 to 1000 nM; for `Cc1nc(N[C@H]2C[C@@H](Nc3cccc(C(F)(F)F)n3)C2)nc2c1NC(=O)[C@H](C(C)C)N2C` [Compound 532, (S)-7-isopropyl-4,8-dimethyl-2-((cis-3-((6-(trifluoromethyl)pyridin-2-yl)amino)cyclobutyl)amino)-7,8-dihydropteridin-6(5H)-one]: 300 to 1000 nM. On to `Cc1nc(N[C@H]2C[C@H](Nc3ccc(C(F)(F)F)cn3)C2)nc2c1NC(=O)[C@H](C(C)C)N2C` [Compound 533, (S)-7-isopropyl-4,8-dimethyl-2-((trans-3-((5-(trifluoromethyl)pyridin-2-yl)amino)cyclobutyl)amino)-7,8-dihydropteridin-6(5H)-one], for which the IC50 lay in the range of 300 to 1000 nM. Take `Cc1nc(N[C@H]2C[C@@H](Nc3ccc(C(F)(F)F)cn3)C2)nc2c1NC(=O)[C@H](C(C)C)N2C` [Compound 534, (S)-7-isopropyl-4,8-dimethyl-2-((cis-3-((5-(trifluoromethyl)pyridin-2-yl)amino)cyclobutyl)amino)-7,8-dihydropteridin-6(5H)-one]: the concentration for half-maximal inhibition (IC50) is < 300 nM. The same measure for `Cc1nc(N[C@H]2C[C@H](NCc3cc(F)c(F)c(F)c3)C2)nc2c1NC(=O)[C@H](C(C)C)N2C` [Compound 535, (S)-7-isopropyl-4,8-dimethyl-2-((trans-3-((3,4,5-trifluorobenzyl)amino)cyclobutyl)amino)-7,8-dihydropteridin-6(5H)-one]: < 300 nM. As to `Cc1nc(N[C@H]2C[C@@H](NCc3cc(F)c(F)c(F)c3)C2)nc2c1NC(=O)[C@H](C(C)C)N2C` [Compound 536, (S)-7-isopropyl-4,8-dimethyl-2-((cis-3-((3,4,5-trifluorobenzyl)amino)cyclobutyl)amino)-7,8-dihydropteridin-6(5H)-one], the IC50 was < 300 nM. The same measure for `Cc1nc(N[C@H]2C[C@H](NC(=O)N(C)C3CCC(F)(F)CC3)C2)nc2c1NC(=O)[C@H](C(C)C)N2C` [Compound 537, 1-(4,4-difluorocyclohexyl)-3-(trans-3-(((S)-7-isopropyl-4,8-dimethyl-6-oxo-5,6,7,8-tetrahydropteridin-2-yl)amino)cyclobutyl)-1-methylurea]: 1000 to 5000 nM; for `Cc1nc(N[C@H]2C[C@@H](NC(=O)N(C)C3CCC(F)(F)CC3)C2)nc2c1NC(=O)[C@H](C(C)C)N2C` [Compound 538, 1-(4,4-difluorocyclohexyl)-3-(cis-3-(((S)-7-isopropyl-4,8-dimethyl-6-oxo-5,6,7,8-tetrahydropteridin-2-yl)amino)cyclobutyl)-1-methylurea]: 1000 to 5000 nM.
